US11319303B2 (WIGEN BIOMEDICINE TECHNOLOGY (SHANGHAI) CO., LTD., priority 2017, dated 2022)

target: LC3B (Homo sapiens, UniProt Q9GZQ8); experiment: Fluorescence Polarization (FP) Assay: displacement of FITC-labeled peptide from GST-LC3B; type: binding; settings: not given
Procedure: The compounds of the present invention for regulating the autophagy-related protein LC3B were tested by Fluorescence Polarization (FP) Assay.
Fluorescence Polarization (FP) Assay Test

`CN(C)CCNC=C1C(=O)CC(c2cccnc2Br)CC1=O` (centres unmarked) [Compound 338, 5-(2-bromopyridin-3-yl)-2-(((2-(dimethylamino)ethyl)amino)methylene) cyclohexane-1,3-dione] and `CN(C)CCNC=C1C(=O)CC(c2cccc(F)c2Br)CC1=O` (centres unmarked) [Compound 350, 5-(2-bromo-3-fluorophenyl)-2-(((2-(dimethylamino)ethyl)amino)methylene) cyclohexane-1,3-dione] cannot be ordered by IC50: less than 3 µM for the first, less than 3 µM for the second.

same assay, conditions: Fluorescence Polarization assay; GST-LC3B 180 nM, FITC-labeled peptide 18 nM, 25° C.; read-out: IC50

`O=C1CC(c2ccccc2C(F)(F)F)CC(=O)C1=CNCCN1CCN(CCO)CC1` (centres unmarked) [Compound 320, 2-(((2-(4-(2-hydroxyethyl)piperazin-1-yl)ethyl)amino)methylene)-5-(2-(trifluoromethyl)phenyl) cyclohexane-1,3-dione] and `O=C1CC(c2cccc3[nH]cc(Cl)c23)CC(=O)C1=CNCCN1CCN(CCO)CC1` (centres unmarked) [Compound 322, 5-(3-chloro-1H-indol-4-yl)-2-(((2-(4-(2-hydroxyethyl)piperazin-1-yl)ethyl)amino)methylene) cyclohexane-1,3-dione] cannot be ordered by IC50: less than 3 µM for the first, less than 3 µM for the second.

`O=C1Nc2c(cccc2-c2ccccc2)C(=O)/C1=C\NCCN1CCN(CCO)CC1` [Compound 321, 3-(((2-(4-(2-hydroxyethyl)piperazin-1-yl)ethyl)amino)methylene)-8-phenylquinoline-2,4(1H,3H)-dione] and `O=C1Nc2ccc(-c3ccccc3)cc2C(=O)/C1=C/NCCN1CCN(CCO)CC1` [Compound 328, 3-(((2-(4-(2-hydroxyethyl)piperazin-1-yl)ethyl)amino)methylene)-6-phenylquinoline-2,4(1H,3H)-dione] fall in the same range of IC50: 3 to 15 µM for the first, 3 to 15 µM for the second.

Compared with `O=C1CC(c2ccccc2)C(c2ccccc2)C(=O)C1=CNCCN1CCN(CCO)CC1` (centres unmarked) [Compound 323, 2-(((2-(4-(2-hydroxyethyl)piperazin-1-yl)ethyl)amino)methylene)-4,5-diphenylcyclo-hexane-1,3-dione], `N#CC1C(=O)C(=CNCCN2CCN(CCO)CC2)C(=O)CC1c1ccccc1` (centres unmarked) [Compound 327, 2-(((2-(4-(2-hydroxyethyl)piperazin-1-yl)ethyl)amino)methylene)-4-cyano-5-phenylcyclohexane-1,3-dione] is lower in IC50: 3 to 15 µM for the first, less than 3 µM for the second. The second is the more potent here.

`CC1(C)C(=O)C(=CNCCN2CCN(CCO)CC2)C(=O)CC1c1ccccc1` (centres unmarked) [Compound 324, 2-(((2-(4-(2-hydroxyethyl)piperazin-1-yl)ethyl)amino)methylene)-4,4-dimethyl-5-phenylcyclohexane-1,3-dione] and `CC1(C#N)C(=O)C(=CNCCN2CCN(CCO)CC2)C(=O)CC1c1ccccc1` (centres unmarked) [Compound 336, 3-(((2-(4-(2-hydroxyethyl)piperazin-1-yl)ethyl)amino)methylene)-1-methyl-2,4-dioxo-6-phenylcyclohexane-1-carbonitrile] fall in the same range of IC50: 3 to 15 µM for the first, 3 to 15 µM for the second.

`CC1C(=O)/C(=C/NCCN2CCN(CCO)CC2)C(=O)CC1(O)c1ccccc1` (centres unmarked) [Compound 325, 5-hydroxy-2-(((2-(4-(2-hydroxyethyl)piperazin-1-yl)ethyl)amino)methylene)-4-methyl-5-phenylcyclohexane-1,3-dione] and `NC(=O)C1C(=O)C(=CNCCN2CCN(CCO)CC2)C(=O)CC1c1ccccc1` (centres unmarked) [Compound 333, 3-(((2-(4-(2-hydroxyethyl)piperazin-1-yl)ethyl)amino)methylene)-2,4-dioxo-6-phenylcyclohexane-1-carboxamide] fall in the same range of IC50: 15 to 100 µM for the first, 15 to 100 µM for the second.

First: O=C(NCCN1CCN(CCO)CC1)C1C(=O)Nc2ccccc2C1=O (centres unmarked) [Compound 326, N-(2-(4-(2-hydroxyethyl)piperazin-1-yl)ethyl)-2,4-dioxo-1,2,3,4-tetrahydroquinoline-3-carboxamide]
Second: CCOC(=O)C1C(=O)C(=CNCCN2CCN(CCO)CC2)C(=O)CC1c1ccccc1 (centres unmarked) [Compound 335, ethyl 3-(((2-(4-(2-hydroxyethyl)piperazin-1-yl)ethyl)amino)methylene)-2,4-dioxo-6-phenylcyclohexane-1-carboxylate]
The IC50 of the first is higher: 100 to 1000 µM for the first, 3 to 15 µM for the second. The second is the more potent here.

`Cc1ccc(C2CC(=O)C(=CNCCN3CCN(CCO)CC3)C(=O)C2)c(Br)c1` (centres unmarked) [Compound 329, 5-(2-bromo-4-methylphenyl)-2-(((2-(4-(2-hydroxyethyl)piperazin-1-yl)ethyl)amino)methylene) cyclohexane-1,3-dione] and `CN(C)c1ccc(Br)c(C2CC(=O)C(=CNCCN3CCN(CCO)CC3)C(=O)C2)c1` (centres unmarked) [Compound 332, 5-(2-bromo-5-(dimethylamino)phenyl)-2-(((2-(4-(2-hydroxyethyl)piperazin-1-yl)ethyl)amino)methylene) cyclohexane-1,3-dione] cannot be ordered by IC50: less than 3 µM for the first, less than 3 µM for the second.

`CCOC(=O)C1C(=O)/C(=C\NCCN2CCN(CCO)CC2)C(=O)CC1c1cccc2[nH]ccc12` (centres unmarked) [Compound 330, ethyl 3-(((2-(4-(2-hydroxyethyl)piperazin-1-yl)ethyl)amino)methylene)-6-(1H-indol-4-yl)-2,4-dioxocyclohexane-1-carboxylate] and `CC(C)(C)OC(=O)C1C(=O)C(=CNCCN2CCN(CCO)CC2)C(=O)CC1c1ccccc1` (centres unmarked) [Compound 334, tert-butyl 3-(((2-(4-(2-hydroxyethyl)piperazin-1-yl)ethyl)amino)methylene)-2,4-dioxo-6-phenylcyclohexane-1-carboxylate] fall in the same range of IC50: 3 to 15 µM for the first, 3 to 15 µM for the second.

`O=C1Nc2c(ccc3ccccc23)C(=O)/C1=C\NCCN1CCN(CCO)CC1` [Compound 331, 3-(((2-(4-(2-hydroxyethyl)piperazin-1-yl)ethyl)amino)methylene) benzo[h]quinoline-2,4(1H,3H)-dione] and `O=C1Nc2cc(C(F)(F)F)ccc2C(=O)/C1=C\NCCN1CCN(CCO)CC1` [Compound 354, 3-(((2-(4-(2-hydroxyethyl)piperazin-1-yl)ethyl)amino)methylene)-7-(trifluoromethyl) quinoline-2,4(1H,3H)-dione] cannot be ordered by IC50: less than 3 µM for the first, less than 3 µM for the second.

`COc1cccc(C2CC(=O)C(=CNCCN(C)C)C(=O)C2)c1` (centres unmarked) [Compound 337, 2-(((2-(dimethylamino)ethyl)amino)methylene)-5-(3-methoxyphenyl) cyclohexane-1,3-dione] and `CN(C)CCNC=C1C(=O)CC(c2c(F)cccc2Cl)CC1=O` (centres unmarked) [Compound 361, 5-(2-chloro-6-fluorophenyl)-2-(((2-(dimethylamino)ethyl)amino)methylene) cyclohexane-1,3-dione] cannot be ordered by IC50: less than 3 µM for the first, less than 3 µM for the second.

`CN(C)CCNC=C1C(=O)CC(c2ccc([N+](=O)[O-])cc2)CC1=O` (centres unmarked) [Compound 340, 2-(((2-(dimethylamino)ethyl)amino)methylene)-5-(4-nitrophenyl) cyclohexane-1,3-dione] and `CN(C)CCNC=C1C(=O)CC(c2ccc(Br)s2)CC1=O` (centres unmarked) [Compound 366, 5-(5-bromothiophen-2-yl)-2-(((2-(dimethylamino)ethyl)amino)methylene) cyclohexane-1,3-dione] cannot be ordered by IC50: less than 3 µM for the first, less than 3 µM for the second.

First: CN(C)CCNC=C1C(=O)CC(C(=O)Nc2ccccc2)CC1=O (centres unmarked) [Compound 343, 4-(((2-(dimethylamino)ethyl)amino)methylene)-3,5-dioxo-N-phenylcyclohexane-1-carboxamide]
Second: CN(C)CCNC=C1C(=O)CC(C(=O)NCc2ccccc2)CC1=O (centres unmarked) [Compound 359, N-benzyl-4-(((2-(dimethylamino)ethyl)amino)methylene)-3,5-dioxocyclohexane-1-carboxamide]
The IC50 of the first is lower: 3 to 15 µM for the first, 15 to 100 µM for the second. The first is the more potent here.

`CN(C)CCNC=C1C(=O)CC(c2ccccc2N2CCOCC2)CC1=O` (centres unmarked) [Compound 344] and `CC(=O)Nc1ccccc1C1CC(=O)C(=CNCCN(C)C)C(=O)C1` (centres unmarked) [Compound 345, N-(2-(4-(((2-(dimethylamino)ethyl)amino)methylene)-3,5-dioxocyclohexyl)phenyl) acetamide] fall in the same range of IC50: 3 to 15 µM for the first, 3 to 15 µM for the second.

`CN(C)CCNC=C1C(=O)CC(c2cc(F)ccc2Br)CC1=O` (centres unmarked) [Compound 349, 5-(2-bromo-5-fluorophenyl)-2-(((2-(dimethylamino)ethyl)amino)methylene) cyclohexane-1,3-dione] and `CN(C)CCNC=C1C(=O)CC(c2cc(F)ccc2Cl)CC1=O` (centres unmarked) [Compound 351, 5-(2-chloro-5-fluorophenyl)-2-(((2-(dimethylamino)ethyl)amino)methylene) cyclohexane-1,3-dione] cannot be ordered by IC50: less than 3 µM for the first, less than 3 µM for the second.

Compared with `O=C1CCCCC(=O)C1=CNCCN1CCN(CCO)CC1` [Compound 352, 2-(((2-(4-(2-hydroxyethyl)piperazin-1-yl)ethyl)amino)methylene) cycloheptane-1,3-dione], `O=C1CC(c2cccc3[nH]cc(-c4ccccc4)c23)CC(=O)C1=CNCCN1CCN(CCO)CC1` (centres unmarked) [Compound 353, 2-(((2-(4-(2-hydroxyethyl)piperazin-1-yl)ethyl)amino)methylene)-5-(3-phenyl-1H-indol-4-yl)cyclohexane-1,3-dione] is lower in IC50: 100 to 1000 µM for the first, less than 3 µM for the second. The second is the more potent here.

`O=C1CC(c2ccccc2)CC(=O)C1=CNc1cccc2c1CNC2=O` (centres unmarked) [Compound 355, 2-(((1-oxoisoindolin-4-yl)amino)methylene)-5-phenylcyclohexane-1,3-dione] and `CN(C)CCNC=C1C(=O)CC(c2c(Cl)cccc2C(F)(F)F)CC1=O` (centres unmarked) [Compound 358, 5-(2-chloro-6-(trifluoromethyl)phenyl)-2-(((2-(dimethylamino)ethyl)amino)methylene) cyclohexane-1,3-dione] cannot be ordered by IC50: less than 3 µM for the first, less than 3 µM for the second.

`CN(C)CCNC=C1C(=O)CC(C(=O)Nc2ccc(Br)cc2)CC1=O` (centres unmarked) [Compound 360, N-(4-bromophenyl)-4-(((2-(dimethylamino)ethyl)amino)methylene)-3,5-dioxocyclohexane-1-carboxamide] and `CN(C)CCNC=C1C(=O)CC(C(=O)Nc2ccc(Cl)cc2)CC1=O` (centres unmarked) [Compound 363, N-(4-chlorophenyl)-4-(((2-(dimethylamino)ethyl)amino)methylene)-3,5-dioxocyclohexane-1-carboxamide] fall in the same range of IC50: 3 to 15 µM for the first, 3 to 15 µM for the second.

`CN(C)CCNC=C1C(=O)CC(c2cc(C(F)(F)F)ccc2Br)CC1=O` (centres unmarked) [Compound 362, 5-(2-bromo-5-(trifluoromethyl)phenyl)-2-(((2-(dimethylamino)ethyl)amino)methylene) cyclohexane-1,3-dione] and `CN(C)CCNC=C1C(=O)CC(c2cc(Cl)cc(Cl)c2Cl)CC1=O` (centres unmarked) [Compound 364, 2-(((2-(dimethylamino)ethyl)amino)methylene)-5-(2,3,5-trichlorophenyl) cyclohexane-1,3-dione] cannot be ordered by IC50: less than 3 µM for the first, less than 3 µM for the second.
